Experimental data: US11090304B2 (Amgen Inc., priority 2018, dated 2021)

Molecular target: GDP-bound KRAS protein (aa 1-169), containing both G12C and C118A amino acid substitutions (Homo sapiens, UniProt P01116, C118A/G12C)
Assay: Coupled nucleotide exchange assay (SOS-mediated, AlphaScreen)
Type: biochemical
Details: 5 min compound pre-incubation

GDP-bound KRAS protein (aa 1-169), containing both G12C and C118A amino acid substitutions, sequence (P01116 1-169 isoform P01116-2 G12C/C118A): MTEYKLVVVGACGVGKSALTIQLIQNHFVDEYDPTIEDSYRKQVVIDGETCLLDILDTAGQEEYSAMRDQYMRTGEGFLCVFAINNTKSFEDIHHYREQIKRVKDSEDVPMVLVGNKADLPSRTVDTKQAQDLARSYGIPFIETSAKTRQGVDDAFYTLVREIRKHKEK

C=CC(=O)N1CCN(c2nc(=O)n(-c3ccccc3C3(C)CC3)c3nc(-c4ccccc4F)c(Cl)cc23)[C@@H](C)C1 (single isomer, unassigned) [Example 54-99-1]
Coupled exchange IC50 (5 min): 1.52 | nda μM

C=CC(=O)N1CCN(c2nc(=O)n(-c3c(C)ccnc3C(C)C)c3nc(Cl)c(F)cc23)[C@@H](C)C1 [Example 58-21, 7-chloro-6-fluoro-1-(4-methyl-2-(2-propanyl)-3-pyridinyl)-4-((2S)-2-methyl-4-(2-propenoyl)-4-piperazinyl)pyrido[2,3-d]pyrimidin-2(1H)-one]
Coupled exchange IC50 (5 min): 17.5 | nda μM

C=CC(=O)N1CCN(c2nc(=O)n(-c3c(F)cccc3F)c3nc(-c4c(O)cccc4F)c(Cl)cc23)[C@@H](C)C1 [Example 60-17, 6-chloro-1-(2,6-difluorophenyl)-7-(2-fluoro-6-hydroxyphenyl)-4-((2S)-2-methyl-4-(2-propenoyl)-1-piperazinyl)pyrido[2,3-d]pyrimidin-2(1H)-one]
Coupled exchange IC50 (5 min): 5.74 | nda μM

C=CC(=O)N1CCN(c2nc(=O)n(-c3c(C)ncnc3C(C)C)c3nc(-c4cc(F)ccc4F)c(Cl)cc23)[C@@H](C)C1 (single isomer, unassigned) [Example 55-39-1]
Coupled exchange IC50 (5 min): 1.795 | nda μM

C=CC(=O)N1CCN(c2nc(=O)n(-c3ccccc3C(C)C)c3nc(-c4c(O)cccc4F)c(F)cc23)[C@@H](C)C1 [Example 57-6, 6-fluoro-7-(2-fluoro-6-hydroxyphenyl)-4-((2S)-2-methyl-4-(2-propenoyl)-1-piperazinyl)-1-(2-(2-propanyl)phenyl)pyrido[2,3-d]pyrimidin-2(1H)-one]
Coupled exchange IC50 (5 min): 1.67 | nda μM

C=CC(=O)N1CCN(c2nc(=O)n(-c3c(C)ccnc3C(C)C)c3nc(-c4cc(N)ccc4F)c(F)cc23)[C@@H](C)C1 (single isomer, unassigned) [Example 58-6-1]
Coupled exchange IC50 (5 min): 8.63 | nda μM

C=CC(=O)N1CCN(c2nc(=O)c(-c3ccccc3C(C)C)c3cc(-c4ccccc4F)c(C)nn23)[C@@H](C)C1 [Example 81-3, 3-(2-fluorophenyl)-2-methyl-8-((2S)-2-methyl-4-(2-propenoyl)-1-piperazinyl)-5-(2-(2-propanyl)phenyl)-6H-pyrimido[1,6-b]pyridazin-6-one]
Coupled exchange IC50 (5 min): 2.87 | nda μM

C=CC(=O)N1CCN(c2nc(=O)n(-c3nccnc3C(C)(C)C)c3nc(-c4c(O)cccc4F)c(Cl)cc23)[C@@H](C)C1 (single isomer, unassigned) [Example 55-23-1]
Coupled exchange IC50 (5 min): 18.55 | nda μM

C=CC(=O)N1CCN(c2cc(=O)n(CC(C)(C)C)c3nc(-c4ccccc4F)ccc23)CC1 [Example 123, 1-(2,2-Dimethylpropyl)-7-(2-fluorophenyl)-4-(4-(2-propenoyl)-1-piperazinyl)-1,8-naphthyridin-2(1H)-one]
Coupled exchange IC50 (5 min): 38.6 | nda μM

C=CC(=O)N1CCN(c2nc(=O)n(-c3c(C)ncnc3C(C)C)c3nc(-c4ccccc4F)c(Cl)cc23)[C@@H](C)C1 (single isomer, unassigned) [Example 55-13-1]
Coupled exchange IC50 (5 min): 0.722 | nda μM

C=CC(=O)N1CCN(c2nc(=O)n(-c3ccccc3C3(C)CC3)c3nc(Cl)c(Cl)cc23)[C@@H](C)C1 [Example 54-98]
Coupled exchange IC50 (5 min): 5.45 | nda μM

C=CC(=O)N1CCN(c2nc(=O)n(-c3c(CC)n[nH]c3CC)c3nc(-c4ccccc4F)c(Cl)cc23)[C@@H](C)C1 [Example 54-106]
Coupled exchange IC50 (5 min): 0.51 | nda μM

C=CC(=O)N1CCN(c2nc(=O)n(-c3c(CC)cccc3CC)c3nc(N4CCC(C(C)(C)C)C4)c(Cl)cc23)[C@@H](C)C1 (some centres unmarked) [Example 66-21]
Coupled exchange IC50 (5 min): 33 | nda μM

C=CC(=O)N1CCN(c2nc(=O)n(-c3ccccc3C(C)C)c3nc(-c4c(C)noc4C)c(Cl)cc23)[C@@H](C)C1 [Example 54-44, 6-chloro-7-(3,5-dimethyl-1,2-oxazol-4-yl)-4-((2S)-2-methyl-4-(2-propenoyl)-1-piperazinyl)-1-(2-(2-propanyl)phenyl)pyrido [2,3-d]pyrimidin-2(1H)-one]
Coupled exchange IC50 (5 min): 3.9 | nda μM
